In patent publication US7432276B2, “ABCA1 elevating compounds” (CV Therapeutics, Inc., priority 2005, dated 2008):

Each molecule was assayed on ABCA1 mRNA (assay: ABCA1 mRNA induction in THP-1 cells, QuantiGene branched DNA assay). Settings: 10 μM test compound, 18-20 hours.
Format: cell-based
Summary of the method: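 THP-1 cells, grown to subconfluence, treated with compounds at 10 and 3 μM in DMEM/BSA for 18–20 h. Lysates hybridized with ABCA1-specific probe 16–18 h at 53 °C; QuantiGene branched DNA luminescence gives fold increase over DMSO.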

Compared with `CC1(C)c2cc(C(O)(C(F)(F)F)C(F)(F)F)ccc2NC2c3cc(C(=O)O)ccc3OCC21` (stereo not drawn) [Number 16, 7,7-dimethyl-9-[2,2,2-trifluoro-1-hydroxy-1-(trifluoromethyl)ethyl]-7,12,12a,6a-tetrahydrochromano[4,3-b]quinoline-2-carboxylic acid], `CC1(C)c2cc(C(O)(C(F)(F)F)C(F)(F)F)ccc2NC2c3cc(Br)ccc3OCC21` (stereo not drawn) [Number 1, 2-(2-bromo-7,7-dimethyl(7,12,12a,6a-tetrahydrochromano[4,3-b]quinolin-9-yl))-1,1,1,3,3,3-hexafluoropropan-2-ol] is higher in “ABCA1 Induction Fold Increase over DMSO Vehicle” value (shortened to “ABCA1 Induction Fold Increase”): 2.4 FOLD INCREASE for the first, 4.4 FOLD INCREASE for the second.

Compared with `CCOc1ccc2c(c1)C(C)(C)[C@H]1COc3cccc(OC)c3[C@H]1N2` [Number 56, (12aS,6aR)-9-ethoxy-1-methoxy-7,7-dimethyl-7,12,12a,6a-tetrahydrochromano[4,3-b]quinoline], `CCOC(=O)c1ccc(-c2ccc3c(c2)C(C)(C)[C@@H]2COc4cccc(OC)c4[C@H]2N3)cc1` [Number 96, ethyl 4-((12aS,6aS)-1-methoxy-7,7-dimethyl-7,12,12a,6a-tetrahydrochromano[4,3-b]quinolin-9-yl)benzoate] is higher in “ABCA1 Induction Fold Increase” value: 4.8 FOLD INCREASE for the first, 7.6 FOLD INCREASE for the second.

First: COc1cccc2c1OC[C@H]1[C@@H]2Nc2ccc(Br)cc2C1(C)C [Number 86, (12aS,6aR)-9-bromo-4-methoxy-7,7-dimethyl-7,12,12a,6a-tetrahydrochromano[4,3-b]quinoline]
Second: COc1cccc2c1OC[C@@H]1[C@@H]2Nc2ccc(Br)cc2C1(C)C [Number 87, (12aS,6aS)-9-bromo-4-methoxy-7,7-dimethyl-7,12,12a,6a-tetrahydrochromano[4,3-b]quinoline]
The “ABCA1 Induction Fold Increase” value of the first is higher: 8.4 FOLD INCREASE for the first, 7.4 FOLD INCREASE for the second.

Compared with `COc1cc(Cl)cc2c1OCC1C2Nc2ccc(NS(=O)(=O)c3ccc(C)cc3)cc2C1(C)C` (stereo not drawn) [Number 105, (2-chloro-4-methoxy-7,7-dimethyl(7,12,12a,6a-tetrahydrochromano[4,3-b]quinolin-9-yl))[(4-methylphenyl)sulfonyl]amine], `COc1cc(Br)cc2c1OC[C@H]1[C@H]2Nc2ccc(C(O)(C(F)(F)F)C(F)(F)F)cc2C1(C)C` [Number 66, 2-((12aR,6aR)-2-bromo-4-methoxy-7,7-dimethyl(7,12,12a,6a-tetrahydrochromano[4,3-b]quinolin-9-yl))-1,1,1,3,3,3-hexafluoropropan-2-ol] is lower in “ABCA1 Induction Fold Increase” value: 3.6 FOLD INCREASE for the first, 2.5 FOLD INCREASE for the second.

With `COc1cccc2c1OCC1C2Nc2ccc(N3CCS(=O)(=O)CC3)cc2C1(C)C` (stereo not drawn) [Number 21, 4-(4-methoxy-7,7-dimethyl-7,12,12a,6a-tetrahydrochromano[4,3-b]quinolin-9-yl)-1,4-thiazaperhydroine-1,1-dione] the “ABCA1 Induction Fold Increase” value was 5.6 FOLD INCREASE.

Same assay, conditions: Homo sapiens, 10 μM test compound, 18-20 hours, read-out: ABCA1 Induction Fold Increase over DMSO Vehicle

Going from `COc1ccc2c(c1)C1Nc3ccc(C(O)(C(F)(F)F)C(F)(F)F)cc3C(C)(C)C1CO2` (stereo not drawn) [Number 7, 1,1,1,3,3,3-hexafluoro-2-(2-methoxy-7,7-dimethyl(7,12,12a,6a-tetrahydrochromano[4,3-b]quinolin-9-yl))propan-2-ol] to `COc1cc(Br)cc2c1OC[C@H]1[C@@H]2Nc2ccc(-c3cnco3)cc2C1(C)C` [Number 149, (6aR,12aS)-2-bromo-6a,7,12,12a-tetrahydro-4-methoxy-7,7-dimethyl-9-(oxazol-5-yl)-6H-chromeno[4,3-b]quinoline], the fold induction at 10 µM rises from 3.1 to 5.5.

Molecule `CCOC(=O)c1cnn(-c2ccc3c(c2)C(C)(C)[C@H]2COc4cccc(OC)c4[C@H]2N3)c1C` [Number 116, ethyl 1-((6aR,12aS)-6a,7,12,12a-tetrahydro-1-methoxy-7,7-dimethyl-6H-chromeno[4,3-b]quinolin-9-yl)-5-methyl-1H-pyrazole-4-carboxylate] has a fold induction at 10 µM of 2.7.
